Laboratory results reported in US10870638B2, “Pyridazinone compound or its salt, and herbicide containing it” (ISHIHARA SANGYO KAISHA, LTD., priority 2016, dated 2020).

How the values were obtained:
Assay type in all cases: in vivo
rice (Oryza sativa L.) [1] = test: Test Example 1: foliar treatment, growth inhibition rate on 14th day; settings: active ingredient amount 31 g/ha, 14th day after application
Summary of the method: (§1)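 Compounds applied once to leaves of pot-grown plants; wild oat at 0.4–1.2 leaf, foxtail 0.5–3.2, rice 0.2–2.7, soybean primary leaf. Inhibition estimated by eye on day 14.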

[2] = system: soybean (Glycine max Merr.); test: as above; settings: active ingredient amount 31 g/ha, 14th day after application
Summary of the method: as §1

corn (Zea mays L.) [3] = test: as above; settings: active ingredient amount 31 g/ha, 14th day after application
Summary of the method: (§2)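 Using a small sprayer, formulated compound in water (0.1 vol % surfactant, 1,000 L/ha) was applied to seedlings grown from seed in upland soil. Fourteen days on, growth state was observed and expressed as percent inhibition from 0 to 100.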

[4] = system: green foxtail (Setaria viridis L.); test: as above; settings: active ingredient amount 31 g/ha, 14th day after application
Summary of the method: as §1

[5] = system: crabgrass (Digitaria sanquinalis L.); test: as above; settings: active ingredient amount 31 g/ha, 14th day after application
Summary of the method: as §2

[6] = system: barnyardgrass (Echinochloa crus-qalli L.); test: as above; settings: active ingredient amount 31 g/ha, 14th day after application
Summary of the method: as §2

[7] = system: redroot pigweed (Amaranthus retroflexus L.); test: as above; settings: active ingredient amount 31 g/ha, 14th day after application
Summary of the method: as §2

[8] = system: wild oat (Avena fatua L.); test: as above; settings: active ingredient amount 31 g/ha, 14th day after application
Summary of the method: as §1

[9] = system: wheat (Triticum aestivum L.); test: as above; settings: active ingredient amount 31 g/ha, 14th day after application
Summary of the method: as §2

[10] = system: italian ryegrass (Lolium multiflorum Lam.); test: as above; settings: active ingredient amount 31 g/ha, 14th day after application
Summary of the method: as §2

rice (Oryza sativa L.) [11] = test: Test Example 2: soil application on the day after sowing, growth inhibition rate on 14th day; settings: active ingredient amount 31 g/ha, 14th day after application
Excerpt: (§3) Upland field soil was put into a 1/300,000 hectare pot, and seeds of various plants (barnyardgrass (Echinochloa crus-qalli L.), crabgrass (Digitaris sanquinalis L.), green foxtail (Setaria viridis L.), redroot pigweed (Amaranthus retroflexus L.), prickly sida (Sida spinosa L.), velvetleaf (Abutilon theophrasti MEDIC.), rice (Oryza sativa L.), corn (Zea mays L.), wheat (Triticum aestivum L.), soybean (Glycine max Merr.)) were sown. On the day after sowing, wettable powders or emulsifiable concentrates of the compounds of the present invention prepared in accordance with a conventional preparation method, were weighed so as to achieve the prescribed active ingredient amounts, and diluted with water in an amount corresponding to 1,000 liters per 1 hectare, followed by soil application by a small sprayer.
(§4) On the 14th day after the application, the state of growth of the respective plants was visually observed, and the herbicidal effect was evaluated by a growth inhibition rate (%) of 0 (equivalent to the non-treated area) to 100 (complete kill).

[12] = system: soybean (Glycine max Merr.); test: as above; settings: active ingredient amount 31 g/ha, 14th day after application
Excerpt: as §3, §4

[13] = system: crabgrass (Digitaris sanquinalis L.); test: as above; settings: active ingredient amount 31 g/ha, 14th day after application
Excerpt: as §3, §4

[14] = system: velvetleaf (Abutilon theophrasti MEDIC.); test: as above; settings: active ingredient amount 31 g/ha, 14th day after application
Excerpt: as §3, §4

corn (Zea mays L.) [15] = test: as above; settings: active ingredient amount 31 g/ha, 14th day after application
Excerpt: as §3, §4

[16] = system: green foxtail (Setaria viridis L.); test: as above; settings: active ingredient amount 31 g/ha, 14th day after application
Excerpt: as §3, §4

[17] = system: barnyardgrass (Echinochloa crus-qalli L.); test: as above; settings: active ingredient amount 31 g/ha, 14th day after application
Excerpt: as §3, §4

[18] = system: prickly sida (Sida spinosa L.); test: as above; settings: Sida spinosa, active ingredient amount 31 g/ha, 14th day after application
Excerpt: as §3, §4

[19] = system: wheat (Triticum aestivum L.); test: as above; settings: active ingredient amount 31 g/ha, 14th day after application
Excerpt: as §3, §4

[20] = visual, 0 = non-treated, 100 = complete kill

Row | SMILES | Growth inhibition rate (%) Rice (rice (Oryza sativa L.) [1]) [%] | Growth inhibition rate (%) Soybean [2] [%] | Growth inhibition rate (%) Corn (corn (Zea mays L.) [3]) [%] | Growth inhibition rate (%) Green foxtail [4] [%] | Growth inhibition rate (%) Crabgrass [5] [%] | Growth inhibition rate (%) Barnyardgrass [6] [%] | Growth inhibition rate (%) Redroot pigweed [7] [%] | Growth inhibition rate (%) Wild oat [8] [%] | Growth inhibition rate (%) Wheat [9] [%] | Growth inhibition rate (%) Italian ryegrass [10] [%] | Growth inhibition rate (%) Rice (rice (Oryza sativa L.) [1]; [20]) [%] | Growth inhibition rate (%) Soybean [2, 20] [%] | Growth inhibition rate (%) Corn (corn (Zea mays L.) [3]; [20]) [%] | Growth inhibition rate (%) Green foxtail [4, 20] [%] | Growth inhibition rate (%) Crabgrass [5, 20] [%] | Growth inhibition rate (%) Barnyardgrass [6, 20] [%] | Growth inhibition rate (%) Redroot pigweed [7, 20] [%] | Growth inhibition rate (%) Wild oat [8, 20] [%] | Growth inhibition rate (%) Wheat [9, 20] [%] | Growth inhibition rate (%) Italian ryegrass [10, 20] [%] | other results
1 | Cc1ccc(Sc2ncc(C(F)(F)F)cc2Cl)cc1-c1c(O)c(C)nn(C)c1=O [1-2, 4-(5-((3-chloro-5-(trifluoromethyl)pyridin-2-yl)thio)-2-methylphenyl)-5-hydroxy-2,6-dimethylpyridazin-3(2H)-one] | 10 | 0 | 95 | 99 | 99 | 100 | 0 | 95 | 20 | 99 | – | – | – | – | – | – | – | – | – | – | inhibition at 31 g/ha (rice (Oryza sativa L.) [11]; Oryza sativa): 20%; inhibition at 31 g/ha ([12]; Glycine max): 0%; inhibition at 31 g/ha ([13]; Digitaria sanguinalis): 98%; inhibition at 31 g/ha ([14]; Abutilon theophrasti): 0%; inhibition at 31 g/ha (corn (Zea mays L.) [15]; Zea mays): 20%; inhibition at 31 g/ha ([16]; Setaria viridis): 99%; inhibition at 31 g/ha ([17]; Echinochloa): 98%; inhibition at 31 g/ha [18]: 30%; inhibition at 31 g/ha ([19]; Triticum aestivum): 10%
2 | Cc1ccc(Oc2nc3ccc(Cl)cc3o2)cc1-c1c(O)cnn(CC2CC2)c1=O [Compound 2-186] | 0 | 15 | 98 | 99 | 99 | 90 | 0 | 25 | 0 | 0 | – | – | – | – | – | – | – | – | – | – | –
3 | CCS(=O)(=O)Oc1c(C)nn(C)c(=O)c1-c1cc(Oc2cnc3cc(Cl)ccc3n2)ccc1C [Compound 3-68] | – | – | – | – | – | – | – | – | – | – | 0 | 0 | 20 | 100 | 95 | 100 | 0 | 90 | 30 | 83 | –
4 | CCc1ccc(Oc2nc3cc(Cl)ccc3o2)cc1-c1c(O)c(C)nn(C)c1=O [Compound 2-162] | 100 | 0 | 90 | 99 | 100 | 100 | 10 | 100 | 99 | 100 | – | – | – | – | – | – | – | – | – | – | Growth inhibition rate (%) Rice (rice (Oryza sativa L.) [11]): 0%; Growth inhibition rate (%) Soybean [12]: 0%; Growth inhibition rate (%) Crabgrass [13]: 20%; Growth inhibition rate (%) Velvetleaf [14]: 0%; Growth inhibition rate (%) Corn (corn (Zea mays L.) [15]): 0%; Growth inhibition rate (%) Green foxtail [16]: 20%; Growth inhibition rate (%) Barnyardgrass [17]: 90%; Growth inhibition rate (%) Wheat [19]: 20%
5 | COCCOCOc1c(C)nn(C)c(=O)c1-c1cc(Oc2ncc(C(F)(F)F)cc2Cl)ccc1C [1-134] | 88 | 0 | 93 | 100 | 99 | 98 | 0 | 99 | 98 | 98 | – | – | – | – | – | – | – | – | – | – | –
6 | Cc1ccc(Oc2cnc3cc(Cl)ccc3n2)cc1-c1c(OC(=S)Sc2ccccc2)c(C)nn(C)c1=O [Compound 3-63] | – | – | – | – | – | – | – | – | – | – | 0 | 0 | 40 | 100 | 98 | 100 | 0 | 98 | 83 | 90 | –
7 | COc1ccc2nc(Oc3ccc(C)c(-c4c(OC(C)=O)c(C)nn(C)c4=O)c3)sc2c1 [Compound 2-154] | 0 | 10 | 0 | 60 | 10 | 80 | 0 | 0 | 0 | 10 | – | – | – | – | – | – | – | – | – | – | –
8 | CC(=O)Oc1c(C)nn(C)c(=O)c1-c1cc(Oc2nc3ccc(C)cc3s2)ccc1C [Compound 2-152] | 78 | 0 | 0 | 85 | 20 | 85 | 0 | 0 | 75 | 35 | – | – | – | – | – | – | – | – | – | – | –
9 | Cc1ccc(Oc2cnc3cc(Cl)ccc3n2)cc1-c1c(OC(=O)OC(C)C)c(C)nn(C)c1=O [Compound 3-60] | – | – | – | – | – | – | – | – | – | – | 10 | 10 | 20 | 100 | 95 | 99 | 0 | 98 | 93 | 95 | –
10 | CCc1nn(C)c(=O)c(-c2cc(Oc3nc4ccc(Cl)cc4o3)ccc2C)c1OC(C)=O [Compound 2-122] | 0 | 40 | 85 | 95 | 90 | 100 | 0 | 60 | 60 | 75 | – | – | – | – | – | – | – | – | – | – | –
11 | Cc1ccc(S(=O)(=O)Oc2c(C)nn(C)c(=O)c2-c2cc(Oc3cnc4cc(Cl)ccc4n3)ccc2C)cc1 [Compound 3-71] | – | – | – | – | – | – | – | – | – | – | 15 | 0 | 0 | 100 | 90 | 100 | 0 | 99 | 95 | 98 | –
12 | CCCCC(=O)Oc1c(C)nn(C)c(=O)c1-c1cc(Oc2cnc3cc(Cl)ccc3n2)ccc1C [Compound 3-36] | 90 | 40 | 40 | 99 | 99 | 100 | 0 | 99 | 99 | 99 | – | – | – | – | – | – | – | – | – | – | –
